Counter-ions that a name gives are not always drawn.
Target: T1, human 5-HT4(a) (Homo sapiens, UniProt Q13639)
T1 construct: host or cells: GeneBIAzer HTR4-CRE-bla CHO-K1 cells
Test: Evaluation of agonistic activity in CHO-K1 cells expressing human 5-HT4(a) (GeneBIAzer HTR4-CRE-bla CHO-K1 cells, beta-lactamase fluorescence ratio, EC50 from 8 concentrations)
Assay type: cell-based
Summary of the method: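 HTR4-CRE-bla CHO-K1 cells (10^4 per well, overnight in 1% FBS medium) exposed to compound for 5 h, then beta-lactamase substrate 2 h in the dark. Fluorescence ratio at 465/535 nm after 410 nm excitation; EC50 by non-linear regression over 8 concentrations.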

T1 sequence (Q13639 1-387 isoform Q13639-2): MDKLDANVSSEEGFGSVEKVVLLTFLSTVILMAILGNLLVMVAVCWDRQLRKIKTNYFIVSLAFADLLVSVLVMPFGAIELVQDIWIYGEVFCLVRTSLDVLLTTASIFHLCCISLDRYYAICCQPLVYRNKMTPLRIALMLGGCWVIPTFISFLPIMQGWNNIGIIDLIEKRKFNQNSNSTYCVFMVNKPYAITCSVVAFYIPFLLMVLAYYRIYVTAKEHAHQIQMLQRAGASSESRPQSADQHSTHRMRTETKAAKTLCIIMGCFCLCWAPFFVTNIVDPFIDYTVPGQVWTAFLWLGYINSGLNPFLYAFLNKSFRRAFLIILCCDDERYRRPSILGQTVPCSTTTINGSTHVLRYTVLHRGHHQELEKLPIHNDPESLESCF

| EC50 [pM] | SMILES |
| --- | --- |
| 5 | CCCCc1cc(N2CCC[C@@H](NC)C2)nc(Nc2cc(N)cc(C(F)(F)F)c2)n1 [Example 313, (R)—N^1-{4-butyl-6-[3-(methylamino)piperidin-1-yl]pyrimidin-2-yl}-5-(trifluoromethyl)benzene-1,3-diamine] |
| 60 | CCCc1cc(N2CCC[C@@H](NC(=O)CO)C2)nc(Nc2ccc(F)c(C#N)c2)n1 [Example 246, (R)—N-{1-[2-(3-cyano-4-fluorophenylamino)-6-propylpyrimidin-4-yl]piperidin-3-yl}-2-hydroxyacetamide] |
| 391 | CCCCc1cc(N2CCC[C@@H](N)C2)nc(Nc2ccc(C)c(C)c2)n1 [Example 347, (R)-4-(3-aminopiperidin-1-yl)-6-butyl-N-(3,4-dimethylphenyl)pyrimidin-2-amine] |
| 470 | CCCc1cc(N2CCCCC2CC)nc(Nc2cccc(OC)c2)n1 (stereo not drawn) [Example 102, 4-(2-ethylpiperidin-1-yl)-N-(3-methoxyphenyl)-6-propylpyrimidin-2-amine] |
| 57 | CCCc1cc(N2CCC[C@@H](NC(=O)CO)C2)nc(Nc2ccc(C)c(Cl)c2)n1 [Example 253, (R)—N-{1-[2-(3-chloro-4-methylphenylamino)-6-propylpyrimidin-4-yl]piperidin-3-yl}-2-hydroxyacetamide] |
| 19 | CCCCc1cc(N2CCC[C@@H](NCC(C)C)C2)nc(Nc2ccc(C)c(C#N)c2)n1 [Example 302, (R)-5-({4-butyl-6-[3-(isobutylamino)piperidin-1-yl]pyrimidin-2-yl}amino)-2-methylbenzonitrile] |
| 15 | CCCc1cc(N2CCC[C@@H](NC)C2)nc(Nc2ccc(F)c(N)c2)n1 [Example 306, (R)-4-fluoro-N^1-{4-[3-(methylamino)piperidin-1-yl]-6-propylpyrimidin-2-yl}benzene-1,3-diamine] |
| 350 | CCCc1cc(N2CCCCC2CCO)nc(Nc2ccc3nc(C(F)(F)F)[nH]c3c2)n1 (stereo not drawn) [Example 136, 2-(1-{6-propyl-2-[2-(trifluoromethyl)-1H-benzo[d]imidazol-6-ylamino]pyrimidin-4-yl}piperidin-2-yl)ethanol] |
| 1.2 | CCCCc1cc(N2CCC[C@@H](NC)C2)nc(Nc2cc(N)cc(C#N)c2)n1 [Example 315, (R)-3-amino-5-({4-butyl-6-[3-(methylamino)piperidin-1-yl]pyrimidin-2-yl}amino)benzonitrile] |
| 28 | CCCCc1cc(N2CCC[C@@H](N)C2)nc(Nc2ccc(N)c(C#N)c2)n1 [Example 350, (R)-2-amino-5-{[4-(3-aminopiperidin-1-yl)-6-butylpyrimidin-2-yl]amino}benzonitrile] |
| 135 | CCCCc1cc(N2CCC[C@@H](N)C2)nc(Nc2ccc(C)c(N)c2)n1 [Example 346, (R)—N^1-[4-(3-aminopiperidin-1-yl)-6-butylpyrimidin-2-yl]-4-methylbenzene-1,3-diamine] |
| 73 | CCCc1cc(N2CCCCC2CCO)nc(Nc2cccc(SC)c2)n1 (stereo not drawn) [Example 25, 2-(1-{2-[3-(methylthio)phenylamino]-6-propylpyrimidin-4-yl}piperidin-2-yl)ethanol] |
| 72 | CCCc1cc(N2CCC[C@@H](NCc3cccs3)C2)nc(Nc2ccc(C)c(C#N)c2)n1 [Example 214, (R)-2-methyl-5-(4-propyl-6-{3-[(thiophen-2-ylmethyl)amino]piperidin-1-yl}pyrimidin-2-ylamino)benzonitrile] |
| 9.6 | CCCc1cc(N2CCC[C@@H](N)C2)nc(Nc2ccc(N)c([N+](=O)[O-])c2)n1 [Example 266, (R)—N^1-[4-(3-aminopiperidin-1-yl)-6-propylpyrimidin-2-yl]-3-nitrobenzene-1,4-diamine] |
| 56 | CCCc1cc(N2CCC[C@@H](N)C2)nc(Nc2ccc(F)c(C#N)c2)n1 [Example 222, (R)-5-[4-(3-aminopiperidin-1-yl)-6-propylpyrimidin-2-ylamino]-2-fluorobenzonitrile dihydrochloride] |
| 91 | CCCc1cc(N2CCCCC2CC)nc(Nc2cccc(C#N)c2)n1 (stereo not drawn) [Example 111, 3-[4-(2-ethylpiperidin-1-yl)-6-propylpyrimidin-2-ylamino]benzonitrile] |
| 16 | CCCc1cc(N2CCC[C@@H](NCC3CCCC3)C2)nc(Nc2ccc(C)c(C#N)c2)n1 [Example 218, (R)-5-{4-[3-(cyclopentylmethylamino)piperidin-1-yl]-6-propylpyrimidin-2-ylamino}-2-methylbenzonitrile] |
| 4.7 | CCCCc1cc(N2CCC[C@@H](NC)C2)nc(Nc2ccc(C)c(N)c2)n1 [Example 319, (R)—N^1-{4-butyl-6-[3-(methylamino)piperidin-1-yl]pyrimidin-2-yl}-4-methylbenzene-1,3-diamine] |
| 19 | CCCc1cc(N2CCC[C@@H](NCC)C2)nc(Nc2cc(N)cc(C#N)c2)n1 [Example 292, (R)-3-amino-5-[4-(3-ethylaminopiperidin-1-yl)-6-propylpyrimidin-2-ylamino]benzonitrile] |
| 25 | CCCCc1cc(N2CCC[C@@H](NCCC(C)C)C2)nc(Nc2ccc(C)c(C#N)c2)n1 [Example 303, (R)-5-({4-butyl-6-[3-(isopentylamino)piperidin-1-yl]pyrimidin-2-yl}amino)-2-methylbenzonitrile] |

| EC50 [pM] | SMILES |
| --- | --- |
| 9.1 | CCCCc1cc(N2CCC[C@@H](NC(C)=O)C2)nc(Nc2ccc(Cl)c(N)c2)n1 [Example 242, (R)—N-{1-[2-(3-amino-4-chlorophenylamino)-6-butylpyrimidin-4-yl]piperidin-3-yl}acetamide] |
| 7.5 | CCCc1cc(N2CCC[C@@H](N)C2)nc(Nc2cc(N)cc(C#N)c2)n1 [Example 260, (R)-3-amino-5-{[4-(3-aminopiperidin-1-yl)-6-propylpyrimidin-2-yl]amino}benzonitrile] |
| 4.1 | CCCc1cc(N2CCC[C@@H](NCC3CC3)C2)nc(Nc2cc(N)cc(C#N)c2)n1 [Example 229, (R)-3-amino-5-{4-[3-(cyclopropylmethylamino)piperidin-1-yl]-6-propylpyrimidin-2-ylamino}benzonitrile] |
| 23 | CCCc1cc(N2CCC[C@@H](NC(=O)CO)C2)nc(Nc2cc(N)cc(C(F)(F)F)c2)n1 [Example 247, (R)—N-(1-{2-[3-amino-5-(trifluoromethyl)phenylamino]-6-propylpyrimidin-4-yl}piperidin-3-yl)-2-hydroxyacetamide] |
| 4 | CCCCc1cc(N2CCC[C@@H](NCC)C2)nc(Nc2ccc(C)c(C#N)c2)n1 [Example 299, (R)-5-({4-butyl-6-[3-(ethylamino)piperidin-1-yl]pyrimidin-2-yl}amino)-2-methylbenzonitrile] |
| 49 | CCCc1cc(N2CCCCC2CCO)nc(Nc2ccc(C)c(C#N)c2)n1 (stereo not drawn) [Example 177, 5-{4-[2-(2-hydroxyethyl)piperidin-1-yl]-6-propylpyrimidin-2-ylamino}-2-methylbenzonitrile] |
| 153 | CCCc1cc(N2CCCCC2CCO)nc(Nc2ccc(C)c(N)c2)n1 (stereo not drawn) [Example 180, 2-{1-[2-(3-amino-4-methylphenylamino)-6-propylpyrimidin-4-yl]piperidin-2-yl}ethanol] |
| 156 | CCCc1cc(N2CCNC[C@H]2C)nc(Nc2cccc(C(F)(F)F)c2)n1 [Example 119] |
| 22 | CCCc1cc(N2CCCCC2CCO)nc(Nc2ccc(Cl)c(N)c2)n1 (stereo not drawn) [Example 182, 2-{1-[2-(3-amino-4-chlorophenylamino)-6-propylpyrimidin-4-yl]piperidin-2-yl}ethanol] |
| 121 | CCCc1cc(N2CCNC[C@H]2C)nc(Nc2ccc(F)c(N)c2)n1 [Example 123, (R)-4-fluoro-N^1-[4-(2-methylpiperazin-1-yl)-6-propylpyrimidin-2-yl]benzene-1,3-diamine] |
| 3.1 | CCCc1cc(N2CCC[C@@H](NC)C2)nc(Nc2ccc(N)c([N+](=O)[O-])c2)n1 [Example 321, (R)—N^1-{4-[3-(methylamino)piperidin-1-yl]-6-propylpyrimidin-2-yl}-3-nitrobenzene-1,4-diamine dihydrochloride] |
| 88 | CCCc1cc(N2CCC[C@H](NCCC(C)C)C2)nc(Nc2ccc(C)c(C#N)c2)n1 [Example 157, (S)-5-{4-[3-(isopentylamino)piperidin-1-yl]-6-propylpyrimidin-2-ylamino}-2-methylbenzonitrile] |
| 21 | CCCc1cc(N2CCC[C@@H](N)C2)nc(Nc2ccc(Cl)c(N)c2)n1 [Example 262, (R)—N^1-[4-(3-aminopiperidin-1-yl)-6-propylpyrimidin-2-yl]-4-chlorobenzene-1,3-diamine] |
| 240 | CCCc1cc(N2CCCC3CCCCC32)nc(Nc2ccc3cc[nH]c3c2)n1 (stereo not drawn) [Example 73, N-[4-(octahydroquinolin-1(2H)-yl)-6-propylpyrimidin-2-yl]-1H-indol-6-amine] |
| 360 | CCCc1cc(N2CCOCC2)nc(Nc2cccc([N+](=O)[O-])c2)n1 [Example 83, 4-morpholino-N-(3-nitrophenyl)-6-propylpyrimidin-2-amine hydrochloride] |
| 8.8 | CCCCc1cc(N2CCC[C@@H](NC(C)=O)C2)nc(Nc2cc(N)cc(C#N)c2)n1 [Example 236, (R)—N-{1-[2-(3-amino-5-cyanophenylamino)-6-butylpyrimidin-4-yl]piperidin-3-yl}acetamide] |
| 6 | CCCCc1cc(N2CCC[C@@H](N)C2)nc(Nc2ccc(N)c([N+](=O)[O-])c2)n1 [Example 337, (R)—N^1-[4-(3-aminopiperidin-1-yl)-6-butylpyrimidin-2-yl]-3-nitrobenzene-1,4-diamine dihydrochloride] |
| 370 | CCCc1cc(N2CCCCC2CC)nc(Nc2cc(OC)ccc2C)n1 (stereo not drawn) [Example 112, 4-(2-ethylpiperidin-1-yl)-N-(5-methoxy-2-methylphenyl)-6-propylpyrimidin-2-amine] |
| 310 | CCCc1cc(N2CCCCC2CCO)nc(Nc2cccc(C(F)(F)F)c2)n1 (stereo not drawn) [Example 147, 2-{1-[6-propyl-2-(3-trifluoromethylphenylamino)pyrimidin-4-yl]piperidin-2-yl}ethanol] |

Reference: patent US9850227B2 (YUHAN CORPORATION, priority 2011, dated 2017)
